{
  "source": "patent US20190269129A1",
  "about": "“COMPOSITION CONTAINING 1,2-DIBROMO-2,4-DICYANOBUTANE (DBDCB) AND ZINC PYRITHIONE (ZPT)” (LANXESS Deutschland GmbH, priority 2014, published 2019)",
  "type_in_all_cases": "cell-based",
  "conditions_in_all_cases": "for Activity of the biocides determined 1 week after germ addition, week 1: week 1, polymer emulsion pH 6.5; for Activity of the biocides determined 1 week after germ addition, week 2: week 2, polymer emulsion pH 6.5; for Activity of the biocides determined 1 week after germ addition, week 3: week 3, polymer emulsion pH 6.5; for Activity of the biocides determined 1 week after germ addition, week 4: week 4, polymer emulsion pH 6.5; for Activity of the biocides determined 1 week after germ addition, week 5: week 5, polymer emulsion pH 6.5; for Activity of the biocides determined 1 week after germ addition, week 6: week 6, polymer emulsion pH 6.5",
  "key": {"[1]": {"tested_on": "Bacteria: Escherichia coli, Pseudomonas aeruginosa and Staphylococcus aureus", "test": "Microbiological stress test, preservation of a polymer emulsion: bacteria", "description": "(§1) The preserving effect of an inventive composition comprising DBDCB and ZPT in a polymer emulsion (acrylate-based, pH=6.5) was investigated using a microbiological stress test. The microbiological stress test examines the susceptibility of water-based systems to microbial attack and the effect of preservatives. To this end, the preservatives are incorporated in defined concentrations into the water-based systems. […] Having knowledge of the microorganism populations prevalent in polymer emulsions and dispersions the experiment employed a mixture of the following microorganism types for testing: Bacteria: Escherichia coli, Pseudomonas aeruginosa and Staphylococcus aureus."}, "[2]": {"tested_on": "Molds: Acremonium strictum, Aspergillus niger and Geotrichum candidu", "test": "Microbiological stress test, preservation of a polymer emulsion: molds", "description": "as §1, with “Molds: Acremonium strictum, Aspergillus niger” for “Bacteria: Escherichia coli, Pseudomonas aeruginosa”, “Geotrichum candidu.” for “Staphylococcus aureus.”"}, "[3]": {"tested_on": "Yeasts: Candida albicans and Rhodotorula rubra", "test": "Microbiological stress test, preservation of a polymer emulsion: yeasts", "description": "as §1, with “Yeasts: Candida albicans” for “Bacteria: Escherichia coli, Pseudomonas aeruginosa”, “Rhodotorula rubra.” for “Staphylococcus aureus.”"}},
  "data": [
    {"smiles": "N#CCCC(Br)(C#N)CBr", "note": "(stereo not drawn) [DBDCB, 1,2-Dibromo-2,4-dicyanobutane]", "values": [
      {"measurement": "Activity of the biocides determined 1 week after germ addition, week 1", "setting": "[1]; 0.025 wt % biocide added", "result": "0 (no reduction or only a minor reduction of the microbe level is observed (residual level of at least 10^5 bacteria/10^4 mold/yeast cells per g) (score of 0=poor))"},
      {"measurement": "Activity of the biocides determined 1 week after germ addition, week 2", "setting": "[1]; 0.025 wt % biocide added", "result": "0 (no reduction or only a minor reduction of the microbe level is observed (residual level of at least 10^5 bacteria/10^4 mold/yeast cells per g) (score of 0=poor))"},
      {"measurement": "Activity of the biocides determined 1 week after germ addition, week 3", "setting": "[1]; 0.025 wt % biocide added", "result": "0 (no reduction or only a minor reduction of the microbe level is observed (residual level of at least 10^5 bacteria/10^4 mold/yeast cells per g) (score of 0=poor))"},
      {"measurement": "Activity of the biocides determined 1 week after germ addition, week 4", "setting": "[1]; 0.025 wt % biocide added", "result": "0 (no reduction or only a minor reduction of the microbe level is observed (residual level of at least 10^5 bacteria/10^4 mold/yeast cells per g) (score of 0=poor))"},
      {"measurement": "Activity of the biocides determined 1 week after germ addition, week 5", "setting": "[1]; 0.025 wt % biocide added", "result": "0 (no reduction or only a minor reduction of the microbe level is observed (residual level of at least 10^5 bacteria/10^4 mold/yeast cells per g) (score of 0=poor))"},
      {"measurement": "Activity of the biocides determined 1 week after germ addition, week 6", "setting": "[1]; 0.025 wt % biocide added", "result": "0 (no reduction or only a minor reduction of the microbe level is observed (residual level of at least 10^5 bacteria/10^4 mold/yeast cells per g) (score of 0=poor))"},
      {"measurement": "Activity of the biocides determined 1 week after germ addition, week 1", "setting": "[1]; 0.05 wt % biocide added", "result": "0 (no reduction or only a minor reduction of the microbe level is observed (residual level of at least 10^5 bacteria/10^4 mold/yeast cells per g) (score of 0=poor))"},
      {"measurement": "Activity of the biocides determined 1 week after germ addition, week 2", "setting": "[1]; 0.05 wt % biocide added", "result": "0 (no reduction or only a minor reduction of the microbe level is observed (residual level of at least 10^5 bacteria/10^4 mold/yeast cells per g) (score of 0=poor))"},
      {"measurement": "Activity of the biocides determined 1 week after germ addition, week 3", "setting": "[1]; 0.05 wt % biocide added", "result": "0 (no reduction or only a minor reduction of the microbe level is observed (residual level of at least 10^5 bacteria/10^4 mold/yeast cells per g) (score of 0=poor))"},
      {"measurement": "Activity of the biocides determined 1 week after germ addition, week 4", "setting": "[1]; 0.05 wt % biocide added", "result": "0 (no reduction or only a minor reduction of the microbe level is observed (residual level of at least 10^5 bacteria/10^4 mold/yeast cells per g) (score of 0=poor))"},
      {"measurement": "Activity of the biocides determined 1 week after germ addition, week 5", "setting": "[1]; 0.05 wt % biocide added", "result": "0 (no reduction or only a minor reduction of the microbe level is observed (residual level of at least 10^5 bacteria/10^4 mold/yeast cells per g) (score of 0=poor))"},
      {"measurement": "Activity of the biocides determined 1 week after germ addition, week 6", "setting": "[1]; 0.05 wt % biocide added", "result": "0 (no reduction or only a minor reduction of the microbe level is observed (residual level of at least 10^5 bacteria/10^4 mold/yeast cells per g) (score of 0=poor))"},
      {"measurement": "Activity of the biocides determined 1 week after germ addition, week 1", "setting": "[2]; 0.025 wt % biocide added", "result": "0 (no reduction or only a minor reduction of the microbe level is observed (residual level of at least 10^5 bacteria/10^4 mold/yeast cells per g) (score of 0=poor))"},
      {"measurement": "Activity of the biocides determined 1 week after germ addition, week 2", "setting": "[2]; 0.025 wt % biocide added", "result": "0 (no reduction or only a minor reduction of the microbe level is observed (residual level of at least 10^5 bacteria/10^4 mold/yeast cells per g) (score of 0=poor))"},
      {"measurement": "Activity of the biocides determined 1 week after germ addition, week 3", "setting": "[2]; 0.025 wt % biocide added", "result": "0 (no reduction or only a minor reduction of the microbe level is observed (residual level of at least 10^5 bacteria/10^4 mold/yeast cells per g) (score of 0=poor))"},
      {"measurement": "Activity of the biocides determined 1 week after germ addition, week 4", "setting": "[2]; 0.025 wt % biocide added", "result": "0 (no reduction or only a minor reduction of the microbe level is observed (residual level of at least 10^5 bacteria/10^4 mold/yeast cells per g) (score of 0=poor))"},
      {"measurement": "Activity of the biocides determined 1 week after germ addition, week 5", "setting": "[2]; 0.025 wt % biocide added", "result": "0 (no reduction or only a minor reduction of the microbe level is observed (residual level of at least 10^5 bacteria/10^4 mold/yeast cells per g) (score of 0=poor))"},
      {"measurement": "Activity of the biocides determined 1 week after germ addition, week 6", "setting": "[2]; 0.025 wt % biocide added", "result": "0 (no reduction or only a minor reduction of the microbe level is observed (residual level of at least 10^5 bacteria/10^4 mold/yeast cells per g) (score of 0=poor))"},
      {"measurement": "Activity of the biocides determined 1 week after germ addition, week 1", "setting": "[2]; 0.05 wt % biocide added", "result": "0 (no reduction or only a minor reduction of the microbe level is observed (residual level of at least 10^5 bacteria/10^4 mold/yeast cells per g) (score of 0=poor))"},
      {"measurement": "Activity of the biocides determined 1 week after germ addition, week 2", "setting": "[2]; 0.05 wt % biocide added", "result": "0 (no reduction or only a minor reduction of the microbe level is observed (residual level of at least 10^5 bacteria/10^4 mold/yeast cells per g) (score of 0=poor))"},
      {"measurement": "Activity of the biocides determined 1 week after germ addition, week 3", "setting": "[2]; 0.05 wt % biocide added", "result": "0 (no reduction or only a minor reduction of the microbe level is observed (residual level of at least 10^5 bacteria/10^4 mold/yeast cells per g) (score of 0=poor))"},
      {"measurement": "Activity of the biocides determined 1 week after germ addition, week 4", "setting": "[2]; 0.05 wt % biocide added", "result": "0 (no reduction or only a minor reduction of the microbe level is observed (residual level of at least 10^5 bacteria/10^4 mold/yeast cells per g) (score of 0=poor))"},
      {"measurement": "Activity of the biocides determined 1 week after germ addition, week 5", "setting": "[2]; 0.05 wt % biocide added", "result": "0 (no reduction or only a minor reduction of the microbe level is observed (residual level of at least 10^5 bacteria/10^4 mold/yeast cells per g) (score of 0=poor))"},
      {"measurement": "Activity of the biocides determined 1 week after germ addition, week 6", "setting": "[2]; 0.05 wt % biocide added", "result": "0 (no reduction or only a minor reduction of the microbe level is observed (residual level of at least 10^5 bacteria/10^4 mold/yeast cells per g) (score of 0=poor))"},
      {"measurement": "Activity of the biocides determined 1 week after germ addition, week 1", "setting": "[3]; 0.025 wt % biocide added", "result": "0 (no reduction or only a minor reduction of the microbe level is observed (residual level of at least 10^5 bacteria/10^4 mold/yeast cells per g) (score of 0=poor))"},
      {"measurement": "Activity of the biocides determined 1 week after germ addition, week 2", "setting": "[3]; 0.025 wt % biocide added", "result": "0 (no reduction or only a minor reduction of the microbe level is observed (residual level of at least 10^5 bacteria/10^4 mold/yeast cells per g) (score of 0=poor))"},
      {"measurement": "Activity of the biocides determined 1 week after germ addition, week 3", "setting": "[3]; 0.025 wt % biocide added", "result": "0 (no reduction or only a minor reduction of the microbe level is observed (residual level of at least 10^5 bacteria/10^4 mold/yeast cells per g) (score of 0=poor))"},
      {"measurement": "Activity of the biocides determined 1 week after germ addition, week 4", "setting": "[3]; 0.025 wt % biocide added", "result": "0 (no reduction or only a minor reduction of the microbe level is observed (residual level of at least 10^5 bacteria/10^4 mold/yeast cells per g) (score of 0=poor))"},
      {"measurement": "Activity of the biocides determined 1 week after germ addition, week 5", "setting": "[3]; 0.025 wt % biocide added", "result": "0 (no reduction or only a minor reduction of the microbe level is observed (residual level of at least 10^5 bacteria/10^4 mold/yeast cells per g) (score of 0=poor))"},
      {"measurement": "Activity of the biocides determined 1 week after germ addition, week 6", "setting": "[3]; 0.025 wt % biocide added", "result": "0 (no reduction or only a minor reduction of the microbe level is observed (residual level of at least 10^5 bacteria/10^4 mold/yeast cells per g) (score of 0=poor))"},
      {"measurement": "Activity of the biocides determined 1 week after germ addition, week 1", "setting": "[3]; 0.05 wt % biocide added", "result": "0 (no reduction or only a minor reduction of the microbe level is observed (residual level of at least 10^5 bacteria/10^4 mold/yeast cells per g) (score of 0=poor))"},
      {"measurement": "Activity of the biocides determined 1 week after germ addition, week 2", "setting": "[3]; 0.05 wt % biocide added", "result": "0 (no reduction or only a minor reduction of the microbe level is observed (residual level of at least 10^5 bacteria/10^4 mold/yeast cells per g) (score of 0=poor))"},
      {"measurement": "Activity of the biocides determined 1 week after germ addition, week 3", "setting": "[3]; 0.05 wt % biocide added", "result": "0 (no reduction or only a minor reduction of the microbe level is observed (residual level of at least 10^5 bacteria/10^4 mold/yeast cells per g) (score of 0=poor))"},
      {"measurement": "Activity of the biocides determined 1 week after germ addition, week 4", "setting": "[3]; 0.05 wt % biocide added", "result": "0 (no reduction or only a minor reduction of the microbe level is observed (residual level of at least 10^5 bacteria/10^4 mold/yeast cells per g) (score of 0=poor))"},
      {"measurement": "Activity of the biocides determined 1 week after germ addition, week 5", "setting": "[3]; 0.05 wt % biocide added", "result": "0 (no reduction or only a minor reduction of the microbe level is observed (residual level of at least 10^5 bacteria/10^4 mold/yeast cells per g) (score of 0=poor))"},
      {"measurement": "Activity of the biocides determined 1 week after germ addition, week 6", "setting": "[3]; 0.05 wt % biocide added", "result": "0 (no reduction or only a minor reduction of the microbe level is observed (residual level of at least 10^5 bacteria/10^4 mold/yeast cells per g) (score of 0=poor))"}
    ]}
  ]
}
